Data as given in US10202411B2, “3′-substituted methyl or alkynyl nucleosides nucleotides for the treatment of HCV” (priority 2014, dated 2019).
Where two headings read alike, the source gives them in different places.

Tests used:
[1] = Cytotoxicity evaluation, CellTiter-Blue Cell Viability Assay; conditions: human
HCV genotype 1b replicon = assay: HCV replicon assay (Zluc luciferase reporter); assay type: cell-based; conditions: read-out: HCV Replicon EC50
Procedure: Huh-7-derived cell line (Zluc) that harbors an HCV genotype 1b replicon and a luciferase reporter gene was grown in Dulbecco's Modified Eagle Medium (DMEM) supplemented with 10% fetal bovine serum, 2 mM GlutaMAX, 1% MEM nonessential amino acids, 100 IU/mL penicillin, 100 μg/mL streptomycin, and 0.5 mg/mL Geneticin® (G418). For dose response testing the cells were seeded in 96-well plates at 7.5×10^3 cells per well in a volume of 50 μL, and incubated at 37° C./5% CO2. Drug solutions were made up freshly in Huh-7 media as 2× stocks. Ten additional 5-fold dilutions were prepared from these stocks in DMEM without G418. At least three hours after Zluc cells were seeded, drug treatment was initiated by adding 50 μL of drug dilutions to the plates in duplicate. Final concentrations of drug ranged from 100 μM to 0.0000512 μM. Cells were then incubated at 37° C./5% CO2. Alternatively, compounds were tested at two concentrations (1 μM and 10 μM). […] After 72 hours of incubation, the inhibition of HCV replication was measured by quantification of photons emitted after mono-oxygenation of 5′-fluoroluciferin to oxyfluoroluciferin by firefly luciferase. For this, media was removed from the plates via gentle tapping. Fifty microliters of ONE-glo luciferase assay reagent was added to each well. The plates were shaken gently for 3 min at room temperature and luminescence was measured on a Victor^3 V 1420 multilabel counter (Perkin Elmer) with a 1 second read time using a 700 nm cut-off filter. The EC50 values were calculated from dose response curves from the resulting best-fit equations determined by Microsoft Excel and XLfit 4.1 software. When screening at two fixed concentrations, the results were expressed as % inhibition at 1 μM and 10 μM.

Zluc cells = assay: Cytotoxicity evaluation, CellTiter-Blue Cell Viability Assay; conditions: read-out: HCV Replicon CC50; Zluc cells, CellTiter-Blue cell viability
in vitro = conditions: human
[2] = Pharmacokinetics of liver triphosphate following a single oral dose in CD-1 mice; assay type: in vivo; conditions: CD-1 male mice; for Ms Liver TP AUC: integrated concentration; for Ms Liver TP Cmax: single point concentration
Procedure: A single oral dose of Compound 1 at 10 mg/kg in PEG 200 (dose volume 5 mL/kg) was administered to nine CD-1 male mice. Five untreated animals were used for the collection of control liver. Liver samples were collected from three animals per time point at 4, 12 and 24 hours post dose. Liver specimens were collected from all animals immediately after the incision. Freezing forceps stored in liquid nitrogen were used to freeze the liver before excision.
Liver samples were analyzed for the active species nucleoside triphosphate by LC-MS/MS. The triphosphate levels were assayed by homogenizing (on ice) a known weight of mouse liver with 4× volume of 0.95 M trichloroacetic acid (TCA). Internal standard solution was added to the homogenate followed by neutralization with 20% ammonium hydroxide solution and addition of 500 μL 1% formic acid. The tissue samples were extracted by weak anion exchange solid phase extraction (SPE). Post extraction, the eluates were evaporated under nitrogen, followed by reconstitution before injection onto the LC-MS/MS system. The samples were chromatographed on a Luna NH2 column using a gradient system of ammonium acetate (1 mM to 20 mM and pH 8.0 to pH 10.0) in water and acetonitrile (70:30). The analyte was detected and quantified by tandem mass spectrometry in positive ion mode on an API4000 equipped with a Turbo Ionspray® interface.

[3] = biological target: wild-type HCV genotype 1b NS5B protein (Hepatitis C virus genotype 1b (isolate Con1) (HCV), UniProt Q9WMX2); assay: HCV polymerase enzyme assay, wild-type; assay type: biochemical; conditions: nucleoside triphosphate form, recombinant HCV genotype 1b NS5B
Description: (§1) Test compounds in the form of nucleoside triphosphates were examined for inhibitory activity against purified HCV polymerase in a standard assay. Bacterial expression constructs encoding the approximately 65 kDa HCV genotype 1b NS5B protein were used to generate recombinant HCV polymerases (with a deletion of the 21 carboxy terminal amino acids). Both the wild-type genotype 1b protein and protein containing the S282T mutation were expressed and purified for use in the enzymatic activity assay.
(§2) The enzymatic activity assay measured the inhibitory effect of increasing concentrations of test compound on the incorporation of α-[^33P]-labeled nucleotide into trichloroacetic acid-precipitable material. Recombinant polymerase and synthetic RNA template were combined in reaction buffer containing ribonucleoside triphosphates, α-[^33P]-labeled nucleotide and eight concentrations of test compound in three-fold dilutions. Reactions were incubated for two hours at 30° C.
(§3) Reactions were terminated by the addition of ice-cold trichloroacetic acid and sodium pyrophosphate to promote precipitation of newly-synthesized ribonucleic acid. Precipitable material from the reactions was collected by filtration onto 96-well filter plates, washed extensively with water, and quantified by liquid scintillation.
(§4) The inhibitory activity of test compounds was determined by fitting results to dose-response curves using XLfit software.

[4] = biological target: HCV genotype 1b NS5B protein containing the S282T mutation (Hepatitis C virus genotype 1b (isolate Con1) (HCV), UniProt Q9WMX2, S2701T); assay: HCV polymerase enzyme assay, S282T mutant; assay type: biochemical; conditions: nucleoside triphosphate form, recombinant HCV genotype 1b NS5B
Description: as §1
as §2, with “Reactions were incubated for two hours at 30° C.” left out
as §3, §4

[5] = Huh-7-derived Zluc cells, genotype 1b replicon, luciferase, 72 hours

SMILES	CC50 (Zluc cells) [µM]	EC50 (HCV genotype 1b replicon; [5]) [µM]	IC50 [3] [µM]	further results
CC(C)OC(=O)[C@@H](C)NP(=S)(OC[C@H]1O[C@@H](n2ccc(=O)[nH]c2=O)[C@H](O)[C@@H]1CO)Oc1ccccc1 (single isomer, unassigned) [Compound 122a Diastereomer 1]	–	–	–	CC50 at 72 h [1]: > 50 µM; EC50 (HCV genotype 1b replicon; Hepatitis C virus, 72 h): > 10 µM
C[C@@H](NP(=O)(OC[C@H]1O[C@@H](n2cnc3c(=O)[nH]c(N)nc32)[C@H](O)[C@@H]1CF)Oc1ccccc1)C(=O)OC1CCCC1 (single isomer, unassigned) [Compound 124a Diastereomer 2]	> 50	> 10	–	–
CCOc1nc(N)nc2c1ncn2[C@@H]1O[C@H](COP(=O)(N[C@H](C)C(=O)OC(C)C)Oc2ccccc2)[C@@H](CF)[C@H]1O (single isomer, unassigned) [Compound 125a Diastereomer 1]	–	–	–	CC50 (in vitro): > 50 µM; Ms Liver TP AUC [2]: +++ (500 <+++ ≤1500); Ms Liver TP Cmax [2]: +++ (50 < +++ ≤100); EC50 (HCV genotype 1b replicon; Hepatitis C virus, Huh-7-derived Zluc cells, genotype 1b replicon, luciferase, 72 hours): > 10 µM
CCOc1nc(N)nc2c1ncn2[C@@H]1O[C@H](COP(=O)(N[C@H](C)C(=O)OC(C)C)Oc2ccccc2)[C@@H](CF)[C@H]1O (single isomer, unassigned) [Compound 125a Diastereomer 2]	> 50	> 10	–	Ms Liver TP AUC [2]: +++ (500 <+++ ≤1500); Ms Liver TP Cmax [2]: +++ (50 < +++ ≤100)
CC(C)OC(=O)C(C)NP(=O)(NC(C)C(=O)OC(C)C)OC[C@H]1O[C@@H](n2ccc(=O)[nH]c2=O)[C@H](O)[C@@H]1CO (stereo partly drawn) [Compound 116]	> 50	> 10	–	–
Nc1nc2c(ncn2[C@@H]2O[C@H](CO)[C@@H](CO)[C@H]2O)c(=O)[nH]1 [Compound 208]	> 50	> 10	–	–
Nc1nc(SCCO)c2ncn([C@@H]3O[C@H](CO)[C@@H](CO)[C@H]3O)c2n1 [Compound 209]	> 50	> 10	–	–
Nc1ncnc2c1ncn2[C@@H]1O[C@H](COP(=O)(O)OP(=O)(O)OP(=O)(O)O)[C@@H](CO)[C@H]1O [Compound 307]	–	–	0.25 to 1	–
Nc1nc2c(ncn2[C@@H]2O[C@H](COP(=O)(O)OP(=O)(O)OP(=O)(O)O)[C@@H](CO)[C@H]2O)c(=O)[nH]1 [Compound 308]	–	–	< 0.25	IC50 [4]: < 0.25 µM
Nc1ncnc2c1ncn2[C@@H]1O[C@H](COP(=O)(O)OP(=O)(O)OP(=O)(O)O)[C@@H](CF)[C@H]1O [Compound 326]	–	–	1 to 10	–
Nc1nc2c(ncn2[C@@H]2O[C@H](COP(=O)(O)OP(=O)(O)OP(=O)(O)O)[C@@H](CF)[C@H]2O)c(=O)[nH]1 [Compound 327]	–	–	< 0.25	IC50 [4]: < 0.25 µM
